Test results taken from ChEMBL document CHEMBL1201862, “PubChem BioAssay data set” (2004).
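Values below derive from 48-hour exposures of cells grown in 96-well plates, with endpoints linearly interpolated between the two concentrations bracketing the appropriate inhibition level. The concentration for 50% growth inhibition is given as GI50.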 Active and inactive are the calls of the source. Rule as the data show it: active = GI50 up to about 1.1 µM and inactive = higher.

Key:
Assay in all cases: NCI tumour cell line growth inhibition, 48 h
[1] = test system: SF-539
[2] = test system: MOLT-4
[3] = test system: SN12C
[4] = test system: HT-29
[5] = test system: SNB-75
[6] = test system: SR
[7] = test system: SF-268
[8] = test system: SF-295
[9] = test system: NCI-H23
[10] = test system: OVCAR-8
[11] = test system: 786-0
[12] = test system: KM12
[13] = test system: OVCAR-4
[14] = test system: HOP-62
[15] = test system: M14
[16] = test system: RPMI-8226
[17] = test system: SK-OV-3

Measured: GI50

COC(=O)c1s/c(=N\C(=S)N(C)C)n(-c2ccc(Cl)cc2)c1C(=O)OC
inactive: [1] 95.5 µM | [2] > 100 µM | [3] > 100 µM | [4] > 100 µM | [5] > 10 µM | [6] > 100 µM | [7] > 100 µM | [8] > 100 µM | [9] > 100 µM | [10] > 100 µM | [11] > 100 µM | [12] > 100 µM | [13] 56.4 µM | [14] 70.3 µM | [15] > 100 µM | [16] > 100 µM | [17] > 10 µM

Cc1cc(C)c2c(c1)N[S@@](=O)S2
inactive: [1] 26.1 µM | [2] 25.8 µM | [3] 19.4 µM | [4] 20.2 µM | [5] 32.5 µM | [6] 36.2 µM | [7] 17.9 µM | [8] 39.7 µM | [9] 35.4 µM | [10] 17.7 µM | [11] 15 µM | [12] 24 µM | [13] 23.1 µM | [14] 57.9 µM | [15] 17 µM | [16] 34.7 µM | [17] 31.4 µM

CCNC(C)Cc1ccccc1 (stereo not drawn)
inactive: [1] > 100 µM | [3] > 100 µM | [4] > 100 µM | [5] 6.71 µM | [6] > 100 µM | [7] > 100 µM | [8] > 100 µM | [9] > 100 µM | [10] > 100 µM | [11] > 100 µM | [12] > 100 µM | [13] > 100 µM | [14] > 100 µM | [15] > 100 µM | [16] > 100 µM | [17] > 100 µM

COC(=O)c1nc(N)nc(C(=O)OC)c1C(=O)c1ccccc1
inactive: [1] > 100 µM | [2] > 100 µM | [3] > 100 µM | [4] > 100 µM | [5] 54.1 µM | [6] > 100 µM | [7] > 100 µM | [8] > 100 µM | [9] > 100 µM | [10] > 100 µM | [11] > 100 µM | [12] > 100 µM | [15] > 100 µM | [16] > 100 µM | [17] > 100 µM

CN/N=C(/Cc1occc(=O)c1O)C(=O)Nc1ccc(C)c(C)c1
inactive: [1] > 100 µM | [2] > 100 µM | [3] > 100 µM | [4] > 100 µM | [6] > 100 µM | [7] > 100 µM | [8] > 100 µM | [9] > 100 µM | [10] > 100 µM | [11] > 100 µM | [12] > 100 µM | [13] > 100 µM | [14] > 100 µM | [15] > 100 µM | [16] > 100 µM | [17] > 100 µM

CC1=C(C)CC2(CCCCC2=O)[S+]([O-])C1 (stereo not drawn)
inactive: [1] > 100 µM | [2] > 100 µM | [3] > 100 µM | [4] > 100 µM | [5] > 100 µM | [6] > 100 µM | [7] > 100 µM | [8] > 100 µM | [9] > 100 µM | [10] > 100 µM | [11] > 100 µM | [12] > 100 µM | [13] > 100 µM | [14] > 100 µM | [15] > 100 µM | [16] > 100 µM | [17] > 100 µM

O=C(Nc1c(Cl)cc([N+](=O)[O-])cc1Cl)C(=O)C(C1OC(=O)c2ccccc21)[N+](=O)[O-] (stereo not drawn)
inactive: [1] > 100 µM | [2] > 100 µM | [3] > 100 µM | [4] > 100 µM | [5] > 100 µM | [6] > 100 µM | [7] > 100 µM | [8] > 100 µM | [9] > 100 µM | [10] > 100 µM | [11] > 100 µM | [12] > 100 µM | [13] > 100 µM | [14] 81.8 µM | [15] > 100 µM | [16] 89.9 µM | [17] > 100 µM

O=C(CCN(C(=O)O)S(=O)(=O)c1ccc(NC(=O)c2ccccc2)cc1)NC1CCCCC1
inactive: [1] > 100 µM | [2] 21.4 µM | [3] > 100 µM | [4] 21.6 µM | [5] > 100 µM | [6] 17.8 µM | [7] > 100 µM | [8] > 100 µM | [9] > 100 µM | [10] > 100 µM | [11] 12.6 µM | [12] > 100 µM | [13] > 100 µM | [14] > 100 µM | [15] > 100 µM | [16] 16.5 µM | [17] > 100 µM

CC(=O)OCC1OC(n2cc([N+](=O)[O-])c(=O)[nH]c2=O)C(OC(C)=O)C(OC(C)=O)C1OC(C)=O (stereo not drawn)
inactive: [2] > 100 µM | [3] > 100 µM | [4] > 100 µM | [5] 54.6 µM | [6] > 100 µM | [7] > 100 µM | [8] > 100 µM | [9] > 100 µM | [10] > 100 µM | [11] > 100 µM | [12] > 100 µM | [13] > 100 µM | [14] > 100 µM | [15] > 100 µM | [16] > 100 µM | [17] > 100 µM
